# Molecular target: FXR (Homo sapiens (Human), UniProt Q96RI1)
# Assay: FXR EC50 (FXR agonist potency reported with each Example)
# Format: cell-based
# FXR, sequence (Q96RI1 262-486): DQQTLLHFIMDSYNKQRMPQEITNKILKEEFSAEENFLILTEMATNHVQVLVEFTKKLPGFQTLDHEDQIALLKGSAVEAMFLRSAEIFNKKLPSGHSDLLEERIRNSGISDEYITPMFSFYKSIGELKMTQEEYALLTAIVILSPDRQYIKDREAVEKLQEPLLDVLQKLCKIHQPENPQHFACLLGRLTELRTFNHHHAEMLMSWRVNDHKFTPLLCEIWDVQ
row,SMILES,EC50 [nM]
1,"Cn1nc(-c2cccc(N(CC34CCC(c5nc(C6CC6)no5)(CC3)CC4)C(=O)C3CC(C(F)F)C3)c2)cc1C1CC1 (stereo not shown) [Example 78, N-((4-(3-cyclopropyl-1,2,4-oxadiazol-5-yl)bicyclo[2.2.2]octan-1-yl)methyl)-N-(3-(5-cyclopropyl-1-methyl-1H-pyrazol-3-yl)phenyl)-3-(difluoromethyl)cyclobutane-1-carboxamide]",607
2,"CCn1cc(-c2cccc(N(CC34CCC(c5nc(C6CC6)no5)(CC3)CC4)C(=O)C3CC(F)(F)C3)c2)oc1=O [Example 81, N-((4-(3-cyclopropyl-1,2,4-oxadiazol-5-yl)bicyclo[2.2.2]octan-1-yl)methyl)-N-(3-(3-ethyl-2-oxo-2,3-dihydrooxazol-5-yl)phenyl)-3,3-difluorocyclobutane-1-carboxamide]",945
3,"O=C(C1CC(F)(F)C1)N(CC12CCC(c3nc(C4CC4)co3)(CC1)CC2)c1cccc(-c2cnc(C3CC3)o2)c1 [Example 83, N-((4-(4-cyclopropyloxazol-2-yl)bicyclo[2.2.2]octan-1-yl)methyl)-N-(3-(2-cyclopropyloxazol-5-yl)phenyl)-3,3-difluorocyclobutane-1-carboxamide]",590
4,"COCc1coc(-c2cccc(N(CC34CCC(c5nc(C6CC6)no5)(CC3)CC4)C(=O)C34CC(F)(C3)C4)c2)n1 [Example 85, N-((4-(3-cyclopropyl-1,2,4-oxadiazol-5-yl)bicyclo[2.2.2]octan-1-yl)methyl)-3-fluoro-N-(3-(4-(methoxymethyl)oxazol-2-yl)phenyl)bicyclo[1.1.1]pentane-1-carboxamide]",137
5,"O=C(C1CC(F)(F)C1)N(CC12CCC(c3nc(C4CC4)no3)(CC1)CC2)c1cccc(-c2nnc(C3CC3)o2)c1 [Example 87, N-((4-(3-cyclopropyl-1,2,4-oxadiazol-5-yl)bicyclo[2.2.2]octan-1-yl)methyl)-N-(3-(5-cyclopropyl-1,3,4-oxadiazol-2-yl)phenyl)-3,3-difluorocyclobutane-1-carboxamide]",712
6,"CC(C)c1noc(C23CCC(CN(C(=O)C45CC(F)(C4)C5)c4cccc(-c5nc(C6CC6)no5)c4)(CC2)CC3)n1 [Example 89, N-(3-(3-cyclopropyl-1,2,4-oxadiazol-5-yl)phenyl)-3-fluoro-N-((4-(3-isopropyl-1,2,4-oxadiazol-5-yl)bicyclo[2.2.2]octan-1-yl)methyl)bicyclo[1.1.1]pentane-1-carboxamide]",47
7,"O=C(N(CC12CCC(c3nc(C4CCOCC4)no3)(CC1)CC2)c1cccc(-c2nc(C3CC3)no2)c1)C12CC(F)(C1)C2 [Example 90, N-(3-(3-cyclopropyl-1,2,4-oxadiazol-5-yl)phenyl)-3-fluoro-N-((4-(3-(tetrahydro-2H-pyran-4-yl)-1,2,4-oxadiazol-5-yl)bicyclo[2.2.2]octan-1-yl)methyl)bicyclo[1.1.1]pentane-1-carboxamide]",121
8,"CC(C)(C)CNC(=O)N(CC12CCC(c3nc(C4CC4)no3)(CC1)CC2)c1cccc(-c2nc(C3CC3)no2)c1 [Example 92, 1-((4-(3-cyclopropyl-1,2,4-oxadiazol-5-yl)bicyclo[2.2.2]octan-1-yl)methyl)-1-(3-(3-cyclopropyl-1,2,4-oxadiazol-5-yl)phenyl)-3-neopentylurea]",420
9,"CN(C)[C@H]1CCN(C(=O)N(CC23CCC(c4nc(C5CC5)no4)(CC2)CC3)c2cccc(-c3nc(C4CC4)no3)c2)C1 [Example 93, (S)—N-((4-(3-cyclopropyl-1,2,4-oxadiazol-5-yl)bicyclo[2.2.2]octan-1-yl)methyl)-N-(3-(3-cyclopropyl-1,2,4-oxadiazol-5-yl)phenyl)-3-(dimethylamino)pyrrolidine-1-carboxamide]",2690
10,"CC1(NC(=O)N(CC23CCC(c4nc(C5CC5)no4)(CC2)CC3)c2cccc(-c3nc(C4CC4)no3)c2)CC1 [Example 94, 1-((4-(3-cyclopropyl-1,2,4-oxadiazol-5-yl)bicyclo[2.2.2]octan-1-yl)methyl)-1-(3-(3-cyclopropyl-1,2,4-oxadiazol-5-yl)phenyl)-3-(1-methylcyclopropyl)urea]",265
11,"COc1ccc(NC(=O)N(CC23CCC(c4nc(C5CC5)no4)(CC2)CC3)c2cccc(-c3nc(C4CC4)no3)c2)cc1 [Example 96, 1-((4-(3-cyclopropyl-1,2,4-oxadiazol-5-yl)bicyclo[2.2.2]octan-1-yl)methyl)-1-(3-(3-cyclopropyl-1,2,4-oxadiazol-5-yl)phenyl)-3-(4-methoxyphenyl)urea]",647
12,"O=C(N(CC12CCC(c3nc(C4CC4)cs3)(CC1)CC2)c1cccc(-c2cnc(C3CC3)o2)c1)C12CC(F)(C1)C2 [Example 97, N-(3-(2-cyclopropyloxazol-5-yl)phenyl)-N-((4-(4-cyclopropylthiazol-2-yl)bicyclo[2.2.2]octan-1-yl)methyl)-3-fluorobicyclo[1.1.1]pentane-1-carboxamide]",70
13,"O=C(C1CC(F)(F)C1)N(CC12CCC(c3nc(C4CC4)cs3)(CC1)CC2)c1cccc(-c2nc(C3CC3)no2)c1 [Example 101, N-(3-(3-cyclopropyl-1,2,4-oxadiazol-5-yl)phenyl)-N-((4-(4-cyclopropylthiazol-2-yl)bicyclo[2.2.2]octan-1-yl)methyl)-3,3-difluorocyclobutane-1-carboxamide]",635
14,"O=C(N(CC12CCC(c3nc(C4CC4)no3)(CC1)CC2)c1cccc(-c2noc(C3CC(F)(F)C3)n2)c1)C12CC(F)(C1)C2 [Example 103, N-((4-(3-cyclopropyl-1,2,4-oxadiazol-5-yl)bicyclo[2.2.2]octan-1-yl)methyl)-N-(3-(5-(3,3-difluorocyclobutyl)-1,2,4-oxadiazol-3-yl)phenyl)-3-fluorobicyclo[1.1.1]pentane-1-carboxamide]",227
15,"O=C(N(CC12CCC(c3nc(C4CC4)no3)(CC1)CC2)c1cccc(-c2noc(C3CC3)n2)c1)C12CC(F)(C1)C2 [Example 104, N-(3-(5-cyclopropyl-1,2,4-oxadiazol-3-yl)phenyl)-N-((4-(3-cyclopropyl-1,2,4-oxadiazol-5-yl)bicyclo[2.2.2]octan-1-yl)methyl)-3-fluorobicyclo[1.1.1]pentane-1-carboxamide]",60

# Other lines, results leading:
row,EC50 [nM],SMILES
1,194,"COC(C)(C)c1coc(-c2cccc(N(CC34CCC(c5nc(C6CC6)no5)(CC3)CC4)C(=O)C34CC(F)(C3)C4)c2)n1 [Example 79, N-((4-(3-cyclopropyl-1,2,4-oxadiazol-5-yl)bicyclo[2.2.2]octan-1-yl)methyl)-3-fluoro-N-(3-(4-(2-methoxypropan-2-yl)oxazol-2-yl)phenyl)bicyclo[1.1.1]pentane-1-carboxamide]"
2,265,"CCn1cc(-c2cccc(N(CC34CCC(c5nc(C6CC6)no5)(CC3)CC4)C(=O)C34CC(F)(C3)C4)c2)oc1=O [Example 80, N-((4-(3-cyclopropyl-1,2,4-oxadiazol-5-yl)bicyclo[2.2.2]octan-1-yl)methyl)-N-(3-(3-ethyl-2-oxo-2,3-dihydrooxazol-5-yl)phenyl)-3-fluorobicyclo[1.1.1]pentane-1-carboxamide]"
3,48,"O=C(N(CC12CCC(c3nc(C4CC4)co3)(CC1)CC2)c1cccc(-c2cnc(C3CC3)o2)c1)C12CC(F)(C1)C2 [Example 82, N-((4-(4-cyclopropyloxazol-2-yl)bicyclo[2.2.2]octan-1-yl)methyl)-N-(3-(2-cyclopropyloxazol-5-yl)phenyl)-3-fluorobicyclo[1.1.1]pentane-1-carboxamide]"
4,948,"COCc1coc(-c2cccc(N(CC34CCC(c5nc(C6CC6)no5)(CC3)CC4)C(=O)C3CC(F)(F)C3)c2)n1 [Example 84, N-((4-(3-cyclopropyl-1,2,4-oxadiazol-5-yl)bicyclo[2.2.2]octan-1-yl)methyl)-3,3-difluoro-N-(3-(4-(methoxymethyl)oxazol-2-yl)phenyl)cyclobutane-1-carboxamide]"
5,123,"O=C(N(CC12CCC(c3nc(C4CC4)no3)(CC1)CC2)c1cccc(-c2nnc(C3CC3)o2)c1)C12CC(F)(C1)C2 [Example 86, N-((4-(3-cyclopropyl-1,2,4-oxadiazol-5-yl)bicyclo[2.2.2]octan-1-yl)methyl)-N-(3-(5-cyclopropyl-1,3,4-oxadiazol-2-yl)phenyl)-3-fluorobicyclo[1.1.1]pentane-1-carboxamide]"
6,86,"CC(C)(C)c1noc(C23CCC(CN(C(=O)C45CC(F)(C4)C5)c4cccc(-c5nc(C6CC6)no5)c4)(CC2)CC3)n1 [Example 88, N-((4-(3-(tert-butyl)-1,2,4-oxadiazol-5-yl)bicyclo[2.2.2]octan-1-yl)methyl)-N-(3-(3-cyclopropyl-1,2,4-oxadiazol-5-yl)phenyl)-3-fluorobicyclo[1.1.1]pentane-1-carboxamide]"
7,322,"O=C(N1CCCC1)N(CC12CCC(c3nc(C4CC4)no3)(CC1)CC2)c1cccc(-c2nc(C3CC3)no2)c1 [Example 91, N-((4-(3-cyclopropyl-1,2,4-oxadiazol-5-yl)bicyclo[2.2.2]octan-1-yl)methyl)-N-(3-(3-cyclopropyl-1,2,4-oxadiazol-5-yl)phenyl)pyrrolidine-1-carboxamide]"
8,590,"CCNC(=O)N(CC12CCC(c3nc(C4CC4)no3)(CC1)CC2)c1cccc(-c2nc(C3CC3)no2)c1 [Example 95, 1-((4-(3-cyclopropyl-1,2,4-oxadiazol-5-yl)bicyclo[2.2.2]octan-1-yl)methyl)-1-(3-(3-cyclopropyl-1,2,4-oxadiazol-5-yl)phenyl)-3-ethylurea]"
9,164,"O=C(N(CC12CCC(c3nc(C4CC4)cs3)(CC1)CC2)c1cccc(-c2nc(C3CC3)no2)c1)C12CC(F)(C1)C2 [Example 100, N-(3-(3-cyclopropyl-1,2,4-oxadiazol-5-yl)phenyl)-N-((4-(4-cyclopropylthiazol-2-yl)bicyclo[2.2.2]octan-1-yl)methyl)-3-fluorobicyclo[1.1.1]pentane-1-carboxamide]"
10,1040,"O=C(N(CC12CCC(c3nc(C4CC4)no3)(CC1)CC2)c1cccc(-c2noc(C34CC(F)(C3)C4)n2)c1)C12CC(F)(C1)C2 [Example 102, N-((4-(3-cyclopropyl-1,2,4-oxadiazol-5-yl)bicyclo[2.2.2]octan-1-yl)methyl)-3-fluoro-N-(3-(5-(3-fluorobicyclo[1.1.1]pentan-1-yl)-1,2,4-oxadiazol-3-yl)phenyl)bicyclo[1.1.1]pentane-1-carboxamide]"
